Test [1] concerns JAK1/TYK2 pSTAT5 (Tyr694/699) in THP-1 cell line. The test is described as follows: IFNa-stimulated JAK1/TYK2 pSTAT5 (Tyr694/699) inhibition cellular assay, AlphaLISA. Format: cell-based. Particulars: Homo sapiens; THP-1 cells, IFNa-stimulated, AlphaLISA (Assay B); read-out: Cellular_THP1_IFNa-pSTATS_TYK2. The essentials: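 THP-1 cells (2e4/well in HBSS) were preincubated with compound (8 points, 6-fold steps from 10000 nM final) for 1 h at 37 °C, then stimulated with IFNa (added at 100 ng/mL) for 30 min. Lysate pSTAT5 was read by AlphaLISA at 615 nm. IC50 came from a 4-parameter fit with bottom 0 and Hill −1.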
For orientation: Bead proximity is the source of the signal in Alpha formats.

Another test addresses T1, TYK2 JH2 (Homo sapiens, UniProt P29597).
T1 construct: purchased DiscoverX (KINOMEscan KdELECT service); host or cells: E. coli BL21-derived (T7 phage display) or HEK-293
The test is described as follows: TYK2 JH2 binding assay (KINOMEscan KdELECT competitive binding). The following applies: TYK2 JH2 domain, DiscoverX KINOMEscan KdELECT (Assay A); read-out: Biochemical TYK2_DiscoverX_JH2_BND_Kd. Summed up: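 The assay measures displacement of DNA- or phage-tagged TYK2 pseudokinase domain from an affinity resin; compound binding lowers the amount captured, read by qPCR. Incubation lasts 1 h at room temperature.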

T1 sequence (P29597 589-875 limits assumed): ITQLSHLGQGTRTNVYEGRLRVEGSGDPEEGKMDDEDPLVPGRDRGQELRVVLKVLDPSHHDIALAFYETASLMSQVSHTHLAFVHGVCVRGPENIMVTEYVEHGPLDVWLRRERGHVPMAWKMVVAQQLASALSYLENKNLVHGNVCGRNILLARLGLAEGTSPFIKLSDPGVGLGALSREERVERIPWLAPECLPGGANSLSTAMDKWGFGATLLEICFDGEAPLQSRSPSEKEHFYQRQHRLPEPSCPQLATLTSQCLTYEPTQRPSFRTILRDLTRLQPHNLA

Take `CNc1ncc(-c2nc3ccc(S(C)(=O)=O)cn3n2)c2cc(NC(=O)C3CC3)ncc12` [Example 497, N-(8-(methylamino)-5-(6-(methylsulfonyl)-[1,2,4]triazolo[1,5-a]pyridin-2-yl)-2,7-naphthyridin-3-yl)cyclopropanecarboxamide]: in test [1], the IC50 was at most 500 nM. For the same compound, the Kd on TYK2 JH2 was at most 100 nM.

Take `CNc1ncc(-c2nc3ccc(OCC(C)(C)C#N)cn3n2)c2cc(NC(=O)C3CC3)ncc12` [Example 498, N-(5-(6-(2-cyano-2-methylpropoxy)-[1,2,4]triazolo[1,5-a]pyridin-2-yl)-8-(methylamino)-2,7-naphthyridin-3-yl)cyclopropanecarboxamide]: in test [1], the IC50 was at most 500 nM. Further, the Kd on TYK2 JH2 was at most 100 nM.

For the compound `CNc1ncc(-c2nc3cc(F)c(N4CCOC(C)C4)cn3n2)c2cc(NC(=O)C3CC3)ncc12` (stereo not drawn) [Example 499, N-(5-(7-fluoro-6-(2-methylmorpholino)-[1,2,4]triazolo[1,5-a]pyridin-2-yl)-8-(methylamino)-2,7-naphthyridin-3-yl)cyclopropanecarboxamide], in test [1], the IC50 is at most 500 nM. Also, the Kd at TYK2 JH2 is at most 100 nM.

For the compound `CNc1ncc(-c2nc3ccc(OCc4ccccc4)cn3n2)c2cc(NC(=O)C3CC3)ncc12` [Example 500, N-(5-(6-(benzyloxy)-[1,2,4]triazolo[1,5-a]pyridin-2-yl)-8-(methylamino)-2,7-naphthyridin-3-yl)cyclopropanecarboxamide], the IC50 in test [1] was at most 500 nM. At TYK2 JH2, the Kd is at most 100 nM.

`CNc1ncc(-c2nc3ccc(OCC(C)(C)O)cn3n2)c2cc(NC(=O)C3CC3)ncc12` [Example 501, N-(5-(6-(2-hydroxy-2-methylpropoxy)-[1,2,4]triazolo[1,5-a]pyridin-2-yl)-8-(methylamino)-2,7-naphthyridin-3-yl)cyclopropanecarboxamide]: in test [1], the IC50 is at most 500 nM. Further, the Kd at TYK2 JH2 was at most 100 nM.

For the compound `CNc1ncc(-c2nc3ccc(N4CC5CC(CN(C)C5)C4)cn3n2)c2cc(NC(=O)C3CC3)ncc12` [Example 502, N-(5-(6-(7-methyl-3,7-diazabicyclo[3.3.1]nonan-3-yl)-[1,2,4]triazolo[1,5-a]pyridin-2-yl)-8-(methylamino)-2,7-naphthyridin-3-yl)cyclopropanecarboxamide], the IC50 in test [1] was at most 500 nM. In addition, the Kd on TYK2 JH2 is at most 100 nM.

Consider `CNc1ncc(-c2nc3ccc(C)cn3n2)c2cc(NC(=O)C3CC3)ncc12` [Example 503, N-(5-(6-methyl-[1,2,4]triazolo[1,5-a]pyridin-2-yl)-8-(methylamino)-2,7-naphthyridin-3-yl)cyclopropanecarboxamide], for which, in test [1], the IC50 was at most 500 nM. Also, at TYK2 JH2, the Kd was at most 100 nM.

For the compound `CNc1ncc(-c2nc3ccc(N4CC5CN(C)CC(C4)O5)cn3n2)c2cc(NC(=O)C3CC3)ncc12` [Example 504, N-(5-(6-(7-methyl-9-oxa-3,7-diazabicyclo[3.3.1]nonan-3-yl)-[1,2,4]triazolo[1,5-a]pyridin-2-yl)-8-(methylamino)-2,7-naphthyridin-3-yl)cyclopropanecarboxamide], the IC50 in test [1] is at most 500 nM. At TYK2 JH2, the Kd was at most 100 nM.

Take `CNc1ncc(-c2nc3c(F)cc(C)cn3n2)c2cc(NC(=O)C3CC3)ncc12` [Example 505, N-(5-(8-fluoro-6-methyl-[1,2,4]triazolo[1,5-a]pyridin-2-yl)-8-(methylamino)-2,7-naphthyridin-3-yl)cyclopropanecarboxamide]: the IC50 in test [1] is at most 500 nM. In addition, the Kd at TYK2 JH2 is at most 100 nM.

In the case of `CCO/C=C\c1cccc2nc(-c3cnc(NC)c4cnc(NC(=O)C5CC5)cc34)nn12` [Example 506, (Z)—N-(5-(5-(2-ethoxyvinyl)-[1,2,4]triazolo[1,5-a]pyridin-2-yl)-8-(methylamino)-2,7-naphthyridin-3-yl)cyclopropanecarboxamide], the IC50 in test [1] is at most 500 nM. Besides, at TYK2 JH2, the Kd is at most 100 nM.

For the compound `CCOCCc1cccc2nc(-c3cnc(NC)c4cnc(NC(=O)C5CC5)cc34)nn12` [Example 507, N-(5-(5-(2-ethoxyethyl)-[1,2,4]triazolo[1,5-a]pyridin-2-yl)-8-(methylamino)-2,7-naphthyridin-3-yl)cyclopropanecarboxamide], in test [1], the IC50 is at most 500 nM. The Kd on TYK2 JH2 was at most 100 nM.

Regarding `CNc1ncc(-c2nc3ccc(N4CCO[C@@H](C)C4)c(F)n3n2)c2cc(NC(=O)C3CC3)ncc12` [Example 508, (S)—N-(5-(5-fluoro-6-(2-methylmorpholino)-[1,2,4]triazolo[1,5-a]pyridin-2-yl)-8-(methylamino)-2,7-naphthyridin-3-yl)cyclopropanecarboxamide], in test [1], the IC50 is at most 500 nM. For the same compound, the Kd at TYK2 JH2 is at most 100 nM.

Take `CNc1ncc(-c2nc3ccc(N4CCO[C@@H](C)C4)c(Cl)n3n2)c2cc(NC(=O)C3CC3)ncc12` [Example 509, (S)—N-(5-(5-chloro-6-(2-methylmorpholino)-[1,2,4]triazolo[1,5-a]pyridin-2-yl)-8-(methylamino)-2,7-naphthyridin-3-yl)cyclopropanecarboxamide]: the IC50 in test [1] is at most 500 nM. Also, on TYK2 JH2, the Kd is at most 100 nM.

Take `CNc1ncc(-c2nc3ccc(OCCS(C)(=O)=O)cn3n2)c2cc(NC(=O)C3CC3)ncc12` [Example 510, N-(8-(methylamino)-5-(6-(2-(methylsulfonyl)ethoxy)-[1,2,4]triazolo[1,5-a]pyridin-2-yl)-2,7-naphthyridin-3-yl)cyclopropanecarboxamide]: in test [1], the IC50 was at most 500 nM. Moreover, the Kd on TYK2 JH2 was at most 100 nM.

For `[2H]C([2H])([2H])Nc1ncc(-c2nc3ccc(OC)cn3n2)c2cc(NC(=O)C3CC3)ncc12` [Example 511, N-(5-(6-methoxy-[1,2,4]triazolo[1,5-a]pyridin-2-yl)-8-((methyl-d3)amino)-2,7-naphthyridin-3-yl)cyclopropanecarboxamide], the IC50 in test [1] is at most 500 nM. Also, at TYK2 JH2, the Kd was at most 100 nM.

As for `[2H]C([2H])([2H])Nc1ncc(-c2nc3ccc(N4CCO[C@H](C)C4)cn3n2)c2cc(NC(=O)C3CC3)ncc12` [Example 512, (R)-N-(8-((methyl-d3)amino)-5-(6-(2-methylmorpholino)-[1,2,4]triazolo[1,5-a]pyridin-2-yl)-2,7-naphthyridin-3-yl)cyclopropanecarboxamide], in test [1], the IC50 is at most 500 nM. On TYK2 JH2, the Kd is at most 100 nM.

Regarding `[2H]C([2H])([2H])Nc1ncc(-c2nc3ccc(N4CCC(F)(F)CC4)cn3n2)c2cc(NC(=O)C3CC3)ncc12` [Example 513, N-(5-(6-(4,4-difluoropiperidin-1-yl)-[1,2,4]triazolo[1,5-a]pyridin-2-yl)-8-((methyl-d3)amino)-2,7-naphthyridin-3-yl)cyclopropanecarboxamide], the IC50 in test [1] was at most 500 nM. On TYK2 JH2, the Kd was at most 100 nM.

As to `CCNc1ncc(-c2nc3ccc(N4CCOCC4)cn3n2)c2cc(NC(=O)C3CC3)ncc12` [Example 514, N-(8-(ethylamino)-5-(6-morpholino-[1,2,4]triazolo[1,5-a]pyridin-2-yl)-2,7-naphthyridin-3-yl)cyclopropanecarboxamide], the IC50 in test [1] is at most 500 nM. Also, the Kd at TYK2 JH2 was at most 100 nM.

For `CCNc1ncc(-c2nc3ccc(N4CCO[C@@H](C)C4)cn3n2)c2cc(NC(=O)C3CC3)ncc12` [Example 515, (S)-N-(8-(ethylamino)-5-(6-(2-methylmorpholino)-[1,2,4]triazolo[1,5-a]pyridin-2-yl)-2,7-naphthyridin-3-yl)cyclopropanecarboxamide], the IC50 in test [1] is at most 500 nM. The Kd on TYK2 JH2 is at most 100 nM.

For the compound `CCNc1ncc(-c2nc3ccc(OC)cn3n2)c2cc(NC(=O)C3CC3)ncc12` [Example 516, N-(8-(ethylamino)-5-(6-methoxy-[1,2,4]triazolo[1,5-a]pyridin-2-yl)-2,7-naphthyridin-3-yl)cyclopropanecarboxamide], the IC50 in test [1] was at most 500 nM. In addition, the Kd at TYK2 JH2 was at most 100 nM.

Consider `CCNc1ncc(-c2nc3ccc(C)cn3n2)c2cc(NC(=O)C3CC3)ncc12` [Example 517, N-(8-(ethylamino)-5-(6-methyl-[1,2,4]triazolo[1,5-a]pyridin-2-yl)-2,7-naphthyridin-3-yl)cyclopropanecarboxamide], for which the IC50 in test [1] was at most 500 nM. Besides, the Kd at TYK2 JH2 was at most 100 nM.

`O=C(Nc1cc2c(-c3nc4ccc(N5CCOCC5)cn4n3)cnc(NC3CC3)c2cn1)C1CC1` [Example 518, N-(8-(cyclopropylamino)-5-(6-morpholino-[1,2,4]triazolo[1,5-a]pyridin-2-yl)-2,7-naphthyridin-3-yl)cyclopropanecarboxamide]: the IC50 in test [1] is at most 500 nM. Also, the Kd on TYK2 JH2 is at most 100 nM.

For `O=C(Nc1cc2c(-c3nc4ccccn4n3)cnc(NC3CC3)c2cn1)C1CC1` [Example 519, N-(5-([1,2,4]triazolo[1,5-a]pyridin-2-yl)-8-(cyclopropylamino)-2,7-naphthyridin-3-yl)cyclopropanecarboxamide], the IC50 in test [1] is above 500 nM. Further, at TYK2 JH2, the Kd is at most 100 nM.

Consider `CNc1ncc(-c2nc3ccc(OC)cn3n2)c2cc(NC(=O)[C@H]3C[C@H]3C)ncc12` [Example 520, (1S,2R)—N-(5-(6-methoxy-[1,2,4]triazolo[1,5-a]pyridin-2-yl)-8-(methylamino)-2,7-naphthyridin-3-yl)-2-methylcyclopropane-1-carboxamide], for which the IC50 in test [1] was at most 500 nM. The Kd at TYK2 JH2 was at most 100 nM.

(Values after patent publication US20240025906A1 (NEURON23, INC., priority 2022, published 2024).)
